The assay has as its target T1, PPARγ (peroxisome proliferator-activated receptor γ) (Homo sapiens, UniProt P37231).
T1 construct: gene PPARG; PPARγ-LBD
T1 sequence (P37231 235-505 limits assumed): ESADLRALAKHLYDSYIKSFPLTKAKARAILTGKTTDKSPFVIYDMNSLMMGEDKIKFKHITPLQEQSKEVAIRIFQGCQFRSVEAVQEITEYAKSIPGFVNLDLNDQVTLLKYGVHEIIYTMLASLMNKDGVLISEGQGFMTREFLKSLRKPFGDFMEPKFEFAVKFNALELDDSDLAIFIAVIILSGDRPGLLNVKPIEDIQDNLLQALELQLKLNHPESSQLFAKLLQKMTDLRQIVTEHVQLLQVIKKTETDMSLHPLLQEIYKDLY
Put plainly: LanthaScreen TR-FRET PPARγ competitive binding assay; supported by PPARγ reporter gene activation in HepG2 cells. In general terms: Time-resolved FRET reads energy transfer from a long-lived donor to a nearby acceptor.

The term Ki denotes a dissociation constant, usually derived from enzyme kinetics or from competition with a known ligand.

The compound `O=C(NCc1ccco1)c1ccc(OCc2ccc(C(F)(F)F)cc2)cc1` [GVS-12] showed a Ki of 320 nM.

The values are drawn from paper PMC9062151, “GVS-12 attenuates non-alcoholic steatohepatitis by suppressing inflammatory responses via PPARγ/STAT3 signaling pathways” (RSC Advances, 2019).
